Measured values taken from US10993983B2, “Cyclic peptide epitopes and small-molecule mimics for inducing autophagy” (TRUSTEES OF TUFTS COLLEGE, priority 2016, dated 2021).
Entries after “also recorded” stand apart in the source; their conditions may differ. Marks after values point to notes of the source that are not given here. Bridges are numbered along the chain shown (N, C = ends). Where no end group is shown, it is not given here. [ ]: non-standard residue; d: D form. The star is where a group is joined. PhAc = O=C(Cc1ccccc1)*; Bz = O=C(c1ccccc1)*

Assays:
Format in all cases: cell-based
HeLa cells = experiment: Autophagy induction judged by p62 and LC3 immunoblots together; parameters: key to Activity compared to wild-type WT / Activity (μM) 10, single symbol / Activity (μM) 30, single symbol / Activity (μM) 50, single symbol / Activity (μM) 100, single symbol: −: activity not reported; 0: decreased vs. WT; +: similar to WT; ++: modest increase vs. WT; +++: significant increase vs. WT; conditions: for concentration at which autophagy induction (p62 degradation and LC3 lipidation) was observed / autophagy induction, result in words: HeLa cells; for concentration at which autophagy induction (p62 degradation and LC3 lipidation) was observed: immunoblot, 3 hour treatment; for autophagy induction, result in words: p62 and LC3 immunoblots; for Activity compared to wild-type WT: Tat-linked linear peptides, summation of p62 degradation assay and LC3 marker assay
Method: This 10-mer sequence was substituted with various thiol-containing amino acids at various positions, and then cross-linked with various linkers as described above (FIG. 5, a and FIG. 6).
(§1) Cells were treated with peptide in OPTI-MEM (Thermo Scientific) acidified with 0.15% (v/v) 6N HCl for 3 hour. Cells were rinsed with Dulbecco's phosphate buffered saline (PBS) and lysed in lysis buffer (20 mM HEPES, 150 mM NaCl, 1 mM EDTA, 1% Triton X-100, protease inhibitor cocktail (Roche) on ice for 1 hour. Cell lysates were centrifuged at 16,000 g for 10 min at 4° C. and analyzed by SDS-PAGE and transferred to PVDF membranes. The membranes were blocked 5% non-fat dry milk (NFDM) in PBST (PBS+0.05% Tween-20) for 1 hour, then incubated overnight at 4° C. with primary antibody in 5% NFDM in PBST. The blots were washed with PBST and incubated with HRP-conjugated secondary antibodies diluted in 5% NFDM in PBST for 1 hour at room temperature. Membranes were washed with PBST and visualized with SuperSignal West Pico Chemiluminescent Substrate (Thermo Scientific). Semi-quantitative results were obtained by noting the lowest concentration at which both p62 degradation and LC3-I to LC3-II conversion were observed.
(SEQ ID NO: 16)-Sequence. […] The N-terminus was capped with an acetyl group while the C terminus was capped with a —C(O)—NH2 group. The activity reported is a summation of results from both the p62 degradation assay and the LC3 marker assay.

p62 = p62 degradation assay (p62/actin immunoblot); parameters: key: −: activity not reported; 0: decreased vs. WT; +: similar to WT; ++: modest increase vs. WT; +++: significant increase vs. WT; conditions: for Activity (μM) 10, p62/actin assay activity: 10 μM; for Activity (μM) 20, p62/actin assay activity: 20 μM; for Activity (μM) 50, p62/actin assay activity: 50 μM; for Activity (μM) 30, p62/actin assay activity: 30 μM; for Activity (μM) 100, p62/actin assay activity: 100 μM; for Activity (μM) 10, starred cell, p62/actin assay activity: 10 μM marked * (footnote: data taken at 20 instead of 30 μM)
Method: as §1
(§2) Compounds 1-10 were evaluated using the assays described in Examples 4 and 5. Activity for each compound was measured in the p62 degradation assay and the LC3 marker assay as described herein. The activity at each concentration of peptide is given as, for example, (0/+) where 0 would be the p62/actin assay activity and + would be the LC3 assay activity.

LC3 = LC3 marker assay (LC3-I to LC3-II conversion immunoblot); parameters: key: −: activity not reported; 0: decreased vs. WT; +: similar to WT; ++: modest increase vs. WT; +++: significant increase vs. WT; conditions: for Activity (μM) 10, LC3 assay activity: 10 μM; for Activity (μM) 20, LC3 assay activity: 20 μM; for Activity (μM) 50, LC3 assay activity: 50 μM; for Activity (μM) 30, LC3 assay activity: 30 μM; for Activity (μM) 100, LC3 assay activity: 100 μM; for Activity (μM) 10, starred cell, LC3 assay activity: 10 μM marked * (footnote: data taken at 20 instead of 30 μM)
Method: as §1, §2

[1] = Table 3, control vehicle, first symbol of cell
[2] = Table 3, control vehicle, first symbol
[3] = Table 3, control vehicle, second symbol of cell
[4] = Table 3, control vehicle, second symbol
[5] = Table 8, control compound T25, first symbol
[6] = Table 8, control compound T25, second symbol
[7] = Table 6, control DMSO, first symbol
[8] = Table 6, control DMSO, second symbol

(pa)-VcNAcFHIAH (pa-V[dC]NA[dC]FHIAH; linker 2-5 via ortho‑xylene (inferred)) [Trp9Ala]
concentration at which autophagy induction (p62 degradation and LC3 lipidation) was observed (HeLa cells): 100 µM
autophagy induction, result in words (HeLa cells): significantly decreased activity

(pa)-VCNAcFHIWH (pa-VCNA[dC]FHIWH; linker 2-5 via ortho‑xylene (inferred)) [LD5-o]
autophagy induction, result in words (HeLa cells): mildly increased autophagy

VCNATCHIWH (V[dC]NAT[dC]HIWH; cysteine pairing not given here; also: Formula I modifications, R1 T, Z MP) [Compound 75]
Activity (μM) 10, single symbol (HeLa cells; 10 μM, Table 8, one symbol only): +

VWNATFAIWHD [Compound T39, Tat-linked linear peptide]
Activity compared to wild-type WT (HeLa cells): +++

FNATFEIWH [Compound T30, Tat-linked linear peptide]
Activity compared to wild-type WT (HeLa cells): +

(pa)-VcNATcHIWH (pa-V[dC]NAT[dC]HIWH; linker 2-6 via meta‑xylene (inferred)) [DD6-m]
concentration at which autophagy induction (p62 degradation and LC3 lipidation) was observed (HeLa cells): 100 µM
autophagy induction, result in words (HeLa cells): capable of inducing autophagy

DFNATFEIWHD [Compound T23, Tat-linked linear peptide]
Activity compared to wild-type WT (HeLa cells): 0

(pa)-VcNAcFHIWH [LL5-o] (VCNACFHIWH; not fully specified (residues 2, 5, N-terminus, bridges); printed as (pa)-VcNAcFHIWH; cysteine pairing not given here) [ortho-xylene linker; stereoisomer with two L-cysteines, negative control]
concentration at which autophagy induction (p62 degradation and LC3 lipidation) was observed (HeLa cells): 100 µM
autophagy induction, result in words (HeLa cells): no autophagy-inducing activity

(benzo)-VcNAcFHIWH (Bz-V[dC]NA[dC]FHIWH; linker 2-5 via ortho‑xylene (inferred); not fully specified (C-terminus); printed as (benzo)-VcNAcFHIWH) [benzo-DD5-o]
concentration at which autophagy induction (p62 degradation and LC3 lipidation) was observed (HeLa cells): 50 µM
autophagy induction, result in words (HeLa cells): induced autophagy to a slightly lesser extent than DD5-o

VFNATFEYWHD [Compound T19, Tat-linked linear peptide]
Activity compared to wild-type WT (HeLa cells): +

(pa)-VcNAcAHIWH (pa-V[dC]NA[dC]AHIWH; linker 2-5 via ortho‑xylene (inferred)) [Phe6Ala]
autophagy induction, result in words (HeLa cells): complete loss of activity; also recorded: complete loss in activity

VFDATFEIWHD [Compound T3, Tat-linked linear peptide]
autophagy induction, result in words (HeLa cells): less than Tat-beclin-1

VWNATFELWHD [Compound T12, Tat-linked linear peptide]
Activity compared to wild-type WT (HeLa cells): +

VWNATFEIWHD [Compound T2, Tat-linked linear peptide]
Activity compared to wild-type WT (HeLa cells): ++

VLNATFEIWHD [Compound T15, Tat-linked linear peptide]
Activity compared to wild-type WT (HeLa cells): +

VFNATFEIWHE [Compound T11, Tat-linked linear peptide]
Activity compared to wild-type WT (HeLa cells): +

VFNATFEMWHD [Compound T16, Tat-linked linear peptide]
Activity compared to wild-type WT (HeLa cells): +

VYNATFEIWHD [Compound T13, Tat-linked linear peptide]
Activity compared to wild-type WT (HeLa cells): 0

TFNATFEIWHD [Compound T22, Tat-linked linear peptide]
Activity compared to wild-type WT (HeLa cells): 0

GFNATFEIWHD [Compound T24, Tat-linked linear peptide]
Activity compared to wild-type WT (HeLa cells): 0

(phenyl)-VcNAcFHIWH (PhAc-V[dC]NA[dC]FHIWH; linker 2-5 via ortho‑xylene (inferred); not fully specified (C-terminus); printed as (phenyl)-VcNAcFHIWH) [phenyl-DD5-o]
autophagy induction, result in words (HeLa cells): showed no activity

(pa)-VcNACFHIWH (pa-V[dC]NACFHIWH; linker 2-5 via ortho‑xylene (inferred)) [DL5-o]
autophagy induction, result in words (HeLa cells): mildly increased autophagy

VWNATFHIWAD [Compound T42, Tat-linked linear peptide]
Activity compared to wild-type WT (HeLa cells): +++

VFNATFEVWHD [Compound T14, Tat-linked linear peptide]
Activity compared to wild-type WT (HeLa cells): +

VWNATFHIAHD [Compound T41, Tat-linked linear peptide]
Activity compared to wild-type WT (HeLa cells): +

VCNACFHIWH [Compound 9]
Activity (μM) 10, p62/actin assay activity (p62; [1]): 0/0
Activity (μM) 20, p62/actin assay activity (p62; [2]): 0/0
Activity (μM) 50, p62/actin assay activity (p62; [2]): 0/0
Activity (μM) 10, LC3 assay activity (LC3; [3]): 0/0
Activity (μM) 20, LC3 assay activity (LC3; [4]): 0/0
Activity (μM) 50, LC3 assay activity (LC3; [4]): 0/0

VCNACFHIWH [Compound 10]
Activity (μM) 10, p62/actin assay activity (p62; [1]): 0
Activity (μM) 20, p62/actin assay activity (p62; [2]): 0
Activity (μM) 50, p62/actin assay activity (p62; [2]): 0
Activity (μM) 10, LC3 assay activity (LC3; [3]): +
Activity (μM) 20, LC3 assay activity (LC3; [4]): ++
Activity (μM) 50, LC3 assay activity (LC3; [4]): +++

VWNATFHIWHD [63] (not fully specified (N-terminus, C-terminus)) [Compound 63]
Activity (μM) 10, p62/actin assay activity (p62; [5]): 0
Activity (μM) 30, starred cell, p62/actin assay activity (p62; Table 8, *Data taken at 20 instead of 30 μM, first symbol): 0
Activity (μM) 10, LC3 assay activity (LC3; [6]): +
Activity (μM) 30, starred cell, LC3 assay activity (LC3; Table 8, *Data taken at 20 instead of 30 μM, second symbol): +++

VWNATFHIWHD (not fully specified (N-terminus, C-terminus)) [Compound 6, likely pa-11mer]
Activity (μM) 10, p62/actin assay activity (p62; [1]): 0/0
Activity (μM) 20, p62/actin assay activity (p62; [2]): 0/0
Activity (μM) 30, p62/actin assay activity (p62; [5]): 0/0
Activity (μM) 50, p62/actin assay activity (p62; [2]): 0/0
Activity (μM) 50, p62/actin assay activity (p62; [5]): ++
Activity (μM) 100, p62/actin assay activity (p62; [2]): 0/0
Activity (μM) 100, p62/actin assay activity (p62; [5]): 0/0
Activity (μM) 10, starred cell, p62/actin assay activity (p62; Table 8, first symbol): 0/0*
Activity (μM) 10, LC3 assay activity (LC3; [3]): 0/0
Activity (μM) 20, LC3 assay activity (LC3; [4]): 0/0
Activity (μM) 30, LC3 assay activity (LC3; [6]): 0/0
Activity (μM) 50, LC3 assay activity (LC3; [4]): 0/0
Activity (μM) 50, LC3 assay activity (LC3; [6]): 0
Activity (μM) 100, LC3 assay activity (LC3; [4]): 0/0
Activity (μM) 100, LC3 assay activity (LC3; [6]): 0/0
Activity (μM) 10, starred cell, LC3 assay activity (LC3; Table 8, second symbol): 0/0*

VCNACFHIWH [Compound 57]
Activity (μM) 10, p62/actin assay activity (p62; [5]): 0/0
Activity (μM) 30, p62/actin assay activity (p62; [5]): +
Activity (μM) 50, p62/actin assay activity (p62; [5]): +
Activity (μM) 10, LC3 assay activity (LC3; [6]): 0/0
Activity (μM) 30, LC3 assay activity (LC3; [6]): 0
Activity (μM) 50, LC3 assay activity (LC3; [6]): 0

RCNARCRIWR (H-R[dC]NAR[dC]RIWR; not fully specified (C-terminus); cysteine pairing not given here) [Compound 40]
Activity (μM) 50, p62/actin assay activity (p62; [5]): 0/0
Activity (μM) 100, p62/actin assay activity (p62; [5]): 0/0
Activity (μM) 50, LC3 assay activity (LC3; [6]): 0/0
Activity (μM) 100, LC3 assay activity (LC3; [6]): 0/0

VCNATCHIWH [Compound 26]
Activity (μM) 10, p62/actin assay activity (p62; [7]): ++
Activity (μM) 30, p62/actin assay activity (p62; [7]): +++/+++
Activity (μM) 50, p62/actin assay activity (p62; [7]): +++/+++
Activity (μM) 100, p62/actin assay activity (p62; [7]): +++/+++
Activity (μM) 10, LC3 assay activity (LC3; [8]): +++
Activity (μM) 30, LC3 assay activity (LC3; [8]): +++/+++
Activity (μM) 50, LC3 assay activity (LC3; [8]): +++/+++
Activity (μM) 100, LC3 assay activity (LC3; [8]): +++/+++

VCNACFHIWH [Compound 72]
Activity (μM) 30, p62/actin assay activity (p62; [5]): 0/0
Activity (μM) 50, p62/actin assay activity (p62; [5]): +
Activity (μM) 10, starred cell, p62/actin assay activity (p62; Table 8, first symbol): 0/0*
Activity (μM) 30, LC3 assay activity (LC3; [6]): 0/0
Activity (μM) 50, LC3 assay activity (LC3; [6]): ++
Activity (μM) 10, starred cell, LC3 assay activity (LC3; Table 8, second symbol): 0/0*
